Key:
[1] = biological target: envelope protein of HIV strain JRCSF with N43D (HIV strain JRCSF) (UniProt P20871); assay: cell-based or functional assay
[2] = biological target: envelope protein of HIV strain JRCSF with G36D (HIV strain JRCSF) (UniProt P20871); assay: cell-based or functional assay
[3] = biological target: envelope protein of HIV strain JRCSF (WT) (HIV strain JRCSF) (UniProt P20871); assay: cell-based or functional assay
[4] = biological target: envelope protein of HIV strain JRCSF with V38A (HIV strain JRCSF) (UniProt P20871); assay: cell-based or functional assay
[5] = test system: T-20-resistant JRCSF envelope variant G36D reporter virus; type: cell-based, HIV
From the text: (§1) In addition, three single amino acid substitutions, G36D, V38A and N43D, known to confer T-20 resistance for HIV were introduced into the JRCSF open reading frame by site-directed mutagenesis (QuikChange II kit, Stratagene, La Jolla, Calif.), thereby generating three T-20-resistant HIV envelope protein expression vectors called […], V38A and N43D.
(§2) HIV reporter viruses for purposes of this experiment were constructed from: (1) the JRCSF WT envelope protein vector, (2) the T-20-resistant envelope protein variants G36D, V38A, or N43D generated in Example 4; or (3) the patient derived HIV envelope protein population of vectors from KJM (Day 1) or KJM (Week9) generated in Example 5. The reporter viruses were produced by co-transfecting the human embryonic kidney cell line HEK293FT (Invitrogen, Carlsbad, Calif.) with the envelope vectors described above and an envelope-deficient proviral DNA encoding a luciferase reporter gene. The cells were propagated in Dulbecco's Modified Eagle Medium (Invitrogen, Carlsbad, Calif.) supplemented with 10% fetal bovine serum (Invitrogen, Carlsbad, Calif.). Transfections were performed using Lipofectamine 2000 (Invitrogen, Carlsbad, Calif.). Culture supernatants were harvested 48 hours post-transfection and filtered through a 0.45 micron filter prior to infecting target cells.
(§3) Viral infections were carried out in a human malignant glioma (U87) target cell expressing the human CD4 receptor and the human CCR5 chemokine receptor. Target cells were seeded into 96-well plates at a density of 3000 cells/well in Dulbecco's Modified Eagle Medium (Invitrogen, Carlsbad, Calif.) supplemented with 10% fetal bovine serum (Invitrogen. Carlsbad, Calif.) and cultured for […]. Target cells were then exposed to the virus generated in Example 6 mixed with varying concentrations of the entry inhibitors T-20 or an anti-CD4 MAb in a final volume of 40-80 microliters. Infection was triggered by centrifugation of the 96-well plates at 1200*g for 1.5-2.0 hours at 25° C. (i.e. spinoculation). After spinoculation, culture medium was added to a final volume of […] per well and the infected cultures were incubated for 3 days at 37° C. After 3 days the level of luciferase expressed in target cells was measured using a luciferase reporter gene assay reagent (Promega, Madison, Wis.), as described by the manufacturer.
(§4) Dose-response curves for the inhibition of luciferase expression by entry inhibitors were derived by fitting the luciferase data with a four-parameter logistic using Origin 7 Client software (OriginLab, Northampton, Mass.). Each dose-response experiment comprised a nine point concentration curve plus untreated controls, all assayed in triplicate wells (raw data not shown). For each EC50 determination, the results of three or more independent experiments were used to calculate the average EC50 and standard error values.

[6] = test system: T-20-resistant JRCSF envelope variant V38A reporter virus; type: cell-based, HIV
From the text: as §1, §2, §3, §4

[7] = test system: T-20-resistant JRCSF envelope variant N43D reporter virus; type: cell-based, HIV
From the text: as §1, §2, §3, §4

[8] = test system: patient-derived envelope population KJM (day 1) reporter virus; type: cell-based, HIV; details: KJM D1 virus
From the text: (§5) HIV RNA was extracted from patient serum using QIAamp isolation kits (Qiagen, Hilden. Germany) and used to generate cDNA with random hexamer primers (SuperScript First Strand Synthesis System for RT-PCR, Invitrogen, Carlsbad, Calif.). HIV envelope protein open reading frame sequences were specifically amplified using a nested PCR procedure with outer PCR primers: […]
(§6) which initiate priming 239 bases upstream and 349 bases downstream of the envelope open reading frame, respectively. The inner PCR primers were the same primers used for directional cloning of the envelope sequence populations into the pCI-neo vector, as described in Example 4. The resulting PCR products represent a population of envelope sequences from HIV viruses present in two patient samples, KJM (day 1) and KJM (week 9).
as §2, §3, §4

[9] = test system: patient-derived envelope population KJM (week 9) reporter virus; type: cell-based, HIV; details: KJM W9 virus
From the text: as §5, §6, §2, §3, §4

[10] = test system: JRCSF WT envelope reporter virus; type: cell-based, HIV
From the text: A DNA expression vector comprising the envelope protein of HIV strain JRCSF was constructed using a commercially available pCI-neo vector (Promega, Madison, Wis.). JRCSF is a primary isolate obtained from an HIV patient which was deposited with the NIH AIDS Research & Reference Reagent Program (Cat. No. 2708). The JRCSF envelope open reading frame was amplified by standard PCR using the following primers: […]
These primers initiate priming at codon 2 of the envelope open reading frame and immediately downstream of the envelope termination codon, respectively. They contain restriction enzymes recognition sequences suitable for directional cloning into the pCI-neo vector. This JRCSF envelope protein expression vector was used in Example 6 below as the WT control. […]
Viral infections were carried out in a human malignant glioma (U87) target cell expressing the human CD4 receptor and the human CCR5 chemokine receptor. […] After 3 days the level of luciferase expressed in target cells was measured using a luciferase reporter gene assay reagent (Promega, Madison, Wis.), as described by the manufacturer. […]

[11] = average +/- standard error, 4 determinations

T-20 (peptide)
Fold Change (EC50MUT/EC50WT JRCSF) [1]: 22 fold
PMI [1]: 96%
Fold Change (EC50MUT/EC50WT JRCSF) [2]: 11 fold
PMI [2]: 99%
PMI [3]: 98%
Fold Change (EC50MUT/EC50WT JRCSF) [4]: 32 fold
PMI [4]: 91%

enfuvirtide
PMI [5]: 99 ± 1.5
Fold Change ([5]; EC50MUT/EC50WT JRCSF): 11
EC50 [5, 11]: 0.14 ± 0.026 µg/mL
PMI [6]: 91 ± 8.9
Fold Change ([6]; EC50MUT/EC50WT JRCSF): 32
EC50 [6, 11]: 0.41 ± 0.21 µg/mL
PMI [7]: 96 ± 3.4
Fold Change ([7]; EC50MUT/EC50WT JRCSF): 22
EC50 [7, 11]: 0.28 ± 0.08 µg/mL
PMI [8]: 99 ± 1.3
EC50 [8, 11]: 0.0091 ± 0.003 µg/mL
PMI [9]: 100 ± 0.58
Fold Change ([9]; EC50W9/EC50D1): 0.93
EC50 [9, 11]: 0.0085 ± 0.0027 µg/mL
PMI [10]: 98 ± 2.4
EC50 [10, 11]: 0.013 ± 0.0035 µg/mL

— patent publication US20090053220A1, “METHODS AND COMPOSITIONS FOR THE INHIBITION OF HIV INFECTION OF T CELLS” (priority 2006, published 2009)
